Tests used:
[1] = target: T1, SIRT1 deacetylase (BIOMOL) (Homo sapiens, UniProt Q96EB6); experiment: High-throughput SIRT1 screening protocol (Fluor de Lys-SIRT1, 384 well); type: biochemical; settings: positive controls; roughly 50 μM, 200 μM NAD+, 5 μM Fluor de Lys-SIRT1
T1 construct: purchased BIOMOL
T1 sequence (Q96EB6 1-747): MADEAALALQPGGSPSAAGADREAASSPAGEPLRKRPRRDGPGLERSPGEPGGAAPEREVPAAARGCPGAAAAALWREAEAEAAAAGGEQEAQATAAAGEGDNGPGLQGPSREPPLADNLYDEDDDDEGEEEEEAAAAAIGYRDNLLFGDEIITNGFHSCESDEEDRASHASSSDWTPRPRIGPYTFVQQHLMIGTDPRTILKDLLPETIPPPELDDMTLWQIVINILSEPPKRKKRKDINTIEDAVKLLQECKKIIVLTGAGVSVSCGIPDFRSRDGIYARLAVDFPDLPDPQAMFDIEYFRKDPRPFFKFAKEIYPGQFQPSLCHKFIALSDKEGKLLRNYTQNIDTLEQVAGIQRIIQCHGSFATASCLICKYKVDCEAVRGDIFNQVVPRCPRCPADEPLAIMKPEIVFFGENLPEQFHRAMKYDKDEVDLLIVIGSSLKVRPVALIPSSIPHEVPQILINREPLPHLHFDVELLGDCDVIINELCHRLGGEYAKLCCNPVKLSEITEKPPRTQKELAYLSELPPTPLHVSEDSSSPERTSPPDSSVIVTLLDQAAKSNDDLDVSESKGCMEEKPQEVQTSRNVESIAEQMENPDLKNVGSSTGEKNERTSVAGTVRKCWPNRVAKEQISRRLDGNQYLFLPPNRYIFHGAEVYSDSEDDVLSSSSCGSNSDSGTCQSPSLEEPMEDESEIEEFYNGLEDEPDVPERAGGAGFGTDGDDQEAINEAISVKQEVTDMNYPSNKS
Experimental: The reaction mixture contains (final): 0.5 units/reaction SIRT1 deacetylase (BIOMOL); 200 μM NAD^+; 5 μM Fluor de Lys-SIRT1 substrate (BIOMOL); buffer (25 mM Tris/Cl, pH 8.0, 137 mM NaCl, 2.7 mM KCl, 1 mM MgCl2, and 1 mg/ml BSA). In addition, a reaction mixture containing no enzyme was made so that each well receiving compound has a corresponding “no enzyme control” well. Reactions were performed in black 384 well plates (NUNC) in a final volume of 25 μl/well.
The reactions were started by combining enzyme and substrate in a reaction mixture immediately prior to aliquoting in plates (or substrate only for “no enzyme control” plates). Mixture were aliquoted to plates using Biotek μFill (Biotek Instruments). Control mixtures were manually added to designated wells. A library compound was added at a desired concentration by pin transfer to both “with enzyme” and “no enzyme” plates. Compounds were added in at least triplicate (with enzyme reaction in duplicate and no enzyme controls) at a final concentration of roughly 50 μM. The plates were incubated at 37° C. for 30-60 minutes. Then 25 μl of 1× Developer II (BIOMOL) plus 2 mM nicotinamide were added to all wells to stop the reactions. The reactions were left for at least 30 minutes at 37° C. for the signal to develop. The plates were read in a microplate-reading fluorometer capable of excitation at a wavelength in the range of 350-380 nm and detection of emitted light in the range of 440-460 nm. A read time of 0.1 sec per well was used.

[2] = system: AMPK and ACC phosphorylation; experiment: AMPK and ACC phosphorylation in mouse embryonic fibroblasts without LKB1; type: cell-based; settings: LKB1 -/- cells; 50, 100, 200 μM
Experimental: Blots were stained for the presence of P-ACC, P-AMPK, AMPK, or tubulin as indicated on the left.
Similar results were also observed in mouse embryonic fibroblast (MEFs). […] Cells in the left panel were incubated overnight without serum before harvesting; the cells on the right were not incubated under serum free conditions. […] Tubulin served as a loading control.

[3] = target: T2, recombinant human SIRT1 (Homo sapiens, UniProt Q96EB6); experiment: SIRT1 fluorescent deacetylation assay (p53-382 acetylated peptide); type: biochemical
T2 sequence (Q96EB6 1-747): T1 sequence (Q96EB6 1-747)
Experimental: To identify compounds that modulate SIRT1 activity, a number of small molecule libraries were screened using a fluorescent deacetylation assay in 96-well plates^26. The substrate used in the assay was a fluorogenic peptide based on the sequence encompassing the p53-K382 acetylation site, a known target of SIRT1 in vivo^20,21,27. […] The small molecule libraries included analogues of nicotinamide, ε-acetyl lysine, NAD^+, nucleotides, nucleotide analogues and purinergic ligands.
From 0.1 to 1 μg of SIRT1 and 1.5 μg of Sir2 were used per deacetylation assay (in 50 μl total reaction) as previously described^26. SIRT1 assays and certain of those for Sir2 employed the p53-382 acetylated substrate (‘Fluor de Lys-SIRT1’, BIOMOL) rather than FdL.
Themed compound libraries (BIOMOL) were used for primary and secondary screening. Most polyphenol compounds were dissolved at 10 mM in dimethylsulfoxide (DMSO) on the day of the assay. For water soluble compounds and negative controls, 1% v/v DMSO was added to the assay. In vitro fluorescence assay results were read in white ½-volume 96-well microplates (Corning Costar 3693) with a CytoFluor™ II fluorescence plate reader (PerSeptive Biosystems, Ex. 360 nm, Em. 460 nm, gain=85). […] Unless otherwise indicated all initial rate measurements were means of three or more replicates, obtained with single incubation times, at which point 5% or less of the substrate initially present had been deacetylated. Calculation of net fluorescence increases included subtraction of a blank value, which in the case of Sir2 was obtained by omitting the enzyme from the reaction and in the case of SIRT1 by adding an inhibitor (200 μM suramin or 1 mM nicotinamide) to the reaction prior to the acetylated substrate. A number of the polyphenols partially quenched the fluorescence produced in the assay and correction factors were obtained by determining the fluorescence increase due to a 3 μM spike of an FdL deacetylated standard (BIOMOL, catalog number KI-142). All error bars represent the standard error of the mean.
All SIRT1 rate measurements used in the calculation of “Ratio to Control Rate” were obtained with 25 μM NAD^+ and 25 μM p53-382 acetylated peptide substrate were performed as described above and in K. T. Howitz et al. Nature (2003) 425: 191. All ratio data were calculated from experiments in which the total deacetylation in the control reaction was 0.25-1.25 μM peptide or 1-5% of the initial concentration of acetylated peptide.

[4] = system: C. elegans; experiment: C. elegans fat accumulation, Nile Red staining; type: in vivo
Experimental: Fat accumulation was visualized with Nile Red staining, as described further below and in Ashrafi K, et al. Nature 421:268-27 (2003).
Synchronized starved L1 worms were grown in the presence of Nile Red. Strains were grown on NGM plates at 25° C. for approximately 48 hours until the young adult stage was reached. 20-30 young adult worms were then washed 2× with M9 buffer and transferred to new NGM/Nile red experimental plates that contained either OP50 or HTT5 E. coli carrying the L4440 RNAi control vector.
Young adults were transferred to plates containing the appropriate vector, Nile Red stain and drug then maintained at 25° C.
Nile Red: Nile Red Powder (Sigma #N-3013) was dissolved in acetone at 500 μg/ml, diluted in 1× Phosphate Buffered Saline (PBS) including appropriate drug and applied to surface of Nematode Growth Media (NGM) plates previously seeded with OP50 or RNAi bacteria, at a final concentration of 0.05 μg/ml. Fat content was monitored and recorded by fluorescence microscopy.

With `Oc1ccc(/C=C/c2cc(O)cc(O)c2)cc1` [Resveratrol, 3,5,4′-Trihydroxy-trans-stilbene] the “Activation of SIRT1” value [1] was 2.2 fold, the “AMPK and ACC phosphorylation” value [2] was “upregulation of both AMPK and ACC phosphorylation” and the “Concentration at which the activating effect was essentially saturated” value ([3]; 25 μM NAD+, 25 μM p53-382 acetylated peptide) was 100 λM. For the same molecule, the Vmax ([3]; 1 mM p53-382 acetylated peptide, variable NAD+, +100 μM resveratrol (control 1863)) was 1749 AFU/min, the Vmax ([3]; 3 mM NAD+, variable p53-382 acetylated peptide, +100 μM resveratrol (control 1107)) was 926 AFU/min and the Fat staining ([4]; 100 μM, 48 hours, control 2.5% v/v DMSO) was “Significant reduction”. The Fat mobilization ([4]; DAF-16 mutant worms (mgDf47)) was “stimulates fat mobilization”, the Fat mobilization ([4]; RNA inactivation of TOC1.8 (AMPK) or F41E7.3 (COT)) was “blocks resveratrol-stimulated fat mobilization” and the Fat mobilization ([4]; Sir2.1 RNAi) was “did not show resveratrol induced fat mobilization”. For the same molecule, the “Reduction of fat content” value ([4]; normal worms, RNAi vector alone) was 75%, the “Fat accumulation (in words)” value ([4]; wild-type N2, 10 μM or 50 μM) was “marked decrease” and the “Reduction of fat accumulation” value ([4]; wild-type N2, 100 μM, overnight) was 90%.

Reference: patent US20060276416A1, “Methods and compositions for treating flushing and drug induced weight gain” (Sirtris Pharmaceuticals, Inc., priority 2005, published 2006)
